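Five compound concentrations were applied to cells in 96-well plates for 48 hours; endpoints were derived by simple linear interpolation of the resulting dose-response curve. At the GI50, growth is halved.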 Activity calls are given as the source filed them. Cut-off read from the data, not from the text of the source: active = GI50 up to about 1.1 µM and inactive = higher. A value given as a limit tells only on which side of the number the result lay.

Among the test systems are A498; HCT-15; HL-60; HOP-92; IGROV-1; K562; M19-MEL; NCI-H23; NCI-H460; NCI-H522; OVCAR-8; RPMI-8226; SK-MEL-28; SK-MEL-5; SR; UO-31; HCC 2998; NCI/ADR-RES; PC-3; T47D.
Test in all cases: DTP human tumour cell line panel, 48 h

Turning to `O=S(=O)(c1ccccc1)n1cnc(CCc2ccccc2)n1`, the GI50 (usually the concentration that inhibits growth by half) is > 100 µM (inactive) in the experiment with A498; above 100 µM in the experiment on HCT-15; > 100 µM (inactive) with HL-60; > 100 µM (inactive) in the experiment with HOP-92; > 100 µM (inactive) in the experiment with IGROV-1; > 100 µM (inactive) in the experiment on K562. Also, the GI50 in the experiment with M19-MEL, in the experiment on NCI-H23, in the experiment on NCI-H460, in the experiment on NCI-H522, in the experiment on OVCAR-8 and with RPMI-8226 was > 100 µM (inactive) in each case. The GI50 in the experiment on SK-MEL-28, in the experiment on SK-MEL-5, in the experiment with SR and with UO-31 was > 100 µM (inactive) in each case.
On to `COc1ccccc1/C=C(\C#N)c1ccccc1`, for which the GI50 in the experiment with A498 is 24.2 µM (inactive); in the experiment on HCC 2998 it was 34.4 µM (inactive); in the experiment with HCT-15 it was 18.4 µM; in the experiment on HOP-92, 45 µM (inactive); in the experiment on IGROV-1, 43.3 µM (inactive); with K562, 11.4 µM (inactive). Moreover, the GI50 is 32.6 µM (inactive) in the experiment with M19-MEL; 41.5 µM (inactive) in the experiment on NCI-H23; 23.8 µM (inactive) in the experiment on NCI-H460; 16.6 µM (inactive) with NCI-H522; 50.5 µM (inactive) in the experiment with OVCAR-8; 20.8 µM (inactive) in the experiment with RPMI-8226. The GI50 in the experiment with SK-MEL-28 was 45.5 µM (inactive); in the experiment with SK-MEL-5 it was 16.7 µM (inactive); in the experiment on SR, 15.6 µM (inactive); with UO-31, 28.8 µM (inactive).
As for `CC(C)n1c2c([n+](C)c1/C=C/c1ccccc1)C(=O)c1ccccc1C2=O`, the GI50 in the experiment on A498 is 0.611 µM (active); in the experiment with HCC 2998, 0.272 µM (active); in the experiment on HCT-15, 3.67 µM; with HL-60, 0.02 µM (active); in the experiment on HOP-92, 0.309 µM (active); with IGROV-1, 0.0157 µM (active). Further, the GI50 in the experiment with K562 was 0.0592 µM (active); in the experiment on M19-MEL it was 0.125 µM (active); with NCI-H23, 0.0908 µM (active); in the experiment with NCI-H460 it was 0.36 µM (active); in the experiment on NCI-H522 it was 0.0201 µM (active); in the experiment on NCI/ADR-RES, 48.6 µM (inactive). Further, the concentration for 50% growth inhibition (GI50) with OVCAR-8 was 0.07 µM (active); in the experiment with PC-3, 0.149 µM (active); in the experiment on RPMI-8226, 0.0575 µM (active); with SK-MEL-28 it was 0.312 µM (active); with SK-MEL-5, 0.07 µM (active); in the experiment with SR, 0.257 µM (active). The values for the GI50 with T47D and in the experiment on UO-31 were 0.0397 µM (active) and 3.55 µM (inactive), respectively.
Consider `COC1=CC(=O)c2c(cc3c(c2O)-c2c(OC)cc4cc5c(c(O)c4c2OC(=O)CC(C)(O)C3)C(=O)CC(C)(O)C5)C1=O` (stereo not given), for which the GI50 with A498 was 2.48 µM (inactive); with HCC 2998 it was 1.24 µM (inactive); with HCT-15 it was 1.95 µM; in the experiment on HL-60, 1.34 µM (inactive); with HOP-92, 1.95 µM (inactive); in the experiment with IGROV-1, 1.9 µM (inactive). For the same compound, the GI50 was 2.44 µM (inactive) in the experiment with K562; 0.379 µM (active) with M19-MEL; 0.624 µM (active) in the experiment with NCI-H23; 1.31 µM (inactive) in the experiment on NCI-H460; 1.32 µM (inactive) in the experiment on NCI-H522; 1.55 µM (inactive) in the experiment with OVCAR-8. Besides, the GI50 in the experiment on RPMI-8226 is 1.32 µM (inactive); in the experiment with SK-MEL-28, 1.32 µM (inactive); in the experiment with SK-MEL-5, 0.237 µM (active); in the experiment with SR, 2.02 µM (inactive); in the experiment with UO-31 it was 1.73 µM (inactive).
With `Cc1cc(=O)cc2sc3cc(Cl)ccc3nc1-2`, the GI50 in the experiment on A498 was 19.9 µM (inactive); in the experiment with HCC 2998, 10.5 µM (inactive); with HCT-15 it was 3.95 µM; in the experiment on HL-60, 2.66 µM (inactive); in the experiment on HOP-92 it was 22.3 µM (inactive); in the experiment on IGROV-1 it was 12.1 µM (inactive). Besides, the GI50 with K562 was 4.09 µM (inactive); with M19-MEL, 16.3 µM (inactive); in the experiment with NCI-H23 it was 13.7 µM (inactive); with NCI-H460, 7.55 µM (inactive); with NCI-H522 it was 2.54 µM (inactive); in the experiment on OVCAR-8, 8.99 µM (inactive). The GI50 is 5.87 µM (inactive) with RPMI-8226; 17.8 µM (inactive) in the experiment with SK-MEL-28; 3.65 µM (inactive) in the experiment with SK-MEL-5; 3.07 µM (inactive) in the experiment with SR; 13.7 µM (inactive) in the experiment with UO-31.
For `Cc1ccc(C(=O)/C=C/c2cccc([N+](=O)[O-])c2)cc1`, the GI50 in the experiment on A498 is 98.2 µM (inactive); in the experiment with HCC 2998 it was > 54.7 µM (inactive); with HCT-15 it was 21.6 µM; in the experiment on HL-60 it was 36.6 µM (inactive); in the experiment on HOP-92 it was > 100 µM (inactive); in the experiment with IGROV-1 it was > 67.9 µM (inactive). Further, the GI50 in the experiment with K562 is 28.4 µM (inactive); in the experiment on M19-MEL, > 44.6 µM (inactive); with NCI-H23, > 74.5 µM (inactive); in the experiment on NCI-H460, > 100 µM (inactive); in the experiment with NCI-H522, 62.5 µM (inactive); in the experiment on OVCAR-8, 42.9 µM (inactive). Also, the GI50 in the experiment with RPMI-8226 is 26.6 µM (inactive); with SK-MEL-28, > 100 µM (inactive); with SK-MEL-5 it was > 100 µM (inactive); with SR, 18.6 µM (inactive); in the experiment with UO-31, 46.9 µM (inactive).
As to `CC1=Nc2c(O)nc(S)nc2NC(c2c(Cl)cccc2Cl)C1` (stereo not given), the GI50 with A498 was 1.67 µM (inactive); in the experiment on HCC 2998, 10.9 µM (inactive); in the experiment with HCT-15, 3.05 µM; with HL-60, 0.552 µM (active); in the experiment on HOP-92, 9.31 µM (inactive); in the experiment on IGROV-1, 2.36 µM (inactive). Moreover, the GI50 was 0.649 µM (active) in the experiment with K562; 1.48 µM (inactive) in the experiment with M19-MEL; 2.65 µM (inactive) with NCI-H23; 1.92 µM (inactive) with NCI-H460; 1.98 µM (inactive) in the experiment on NCI-H522; 0.193 µM (active) with NCI/ADR-RES. For the same compound, the GI50 in the experiment on OVCAR-8 was 0.877 µM (active); in the experiment on PC-3, 1.17 µM (inactive); with RPMI-8226 it was 0.583 µM (active); in the experiment on SK-MEL-28 it was 2.73 µM (inactive); in the experiment on SK-MEL-5, 3.58 µM (inactive); with SR, 0.372 µM (active). The GI50 in the experiment on T47D was 1.48 µM (inactive); with UO-31, 5.19 µM (inactive).
Turning to `CCOC(=O)C(=Cc1cccnc1C)C(=O)OCC`, the GI50 is 10.9 µM (inactive) in the experiment with A498; 3.69 µM with HCT-15; 3.78 µM (inactive) with HL-60; 7.01 µM (inactive) in the experiment on HOP-92; 7.6 µM (inactive) in the experiment with IGROV-1; 3.39 µM (inactive) in the experiment with K562. The GI50 with M19-MEL is 7.91 µM (inactive); in the experiment with NCI-H23, 4.09 µM (inactive); with NCI-H460, 15.6 µM (inactive); in the experiment on NCI-H522 it was 3.89 µM (inactive); with OVCAR-8 it was 5.18 µM (inactive); in the experiment with SK-MEL-28 it was 17.5 µM (inactive). Moreover, the GI50 with SK-MEL-5 is 11.8 µM (inactive); in the experiment with SR it was 3.61 µM (inactive); with UO-31, 5.16 µM (inactive).
On to `O=C(CC1(O)C(=O)Nc2c(Cl)cc(Cl)cc21)c1ccc([N+](=O)[O-])cc1` (stereo not given), for which the GI50 in the experiment on A498 is 29.9 µM (inactive); in the experiment with HCC 2998, 38 µM (inactive); in the experiment on HCT-15, above 55.3 µM; with HL-60 it was 7.89 µM (inactive); with HOP-92 it was 24.3 µM (inactive); in the experiment on IGROV-1 it was > 52.2 µM (inactive). Also, the GI50 in the experiment with K562 is 43.4 µM (inactive); in the experiment with M19-MEL it was 10.3 µM (inactive); with NCI-H23, 29.9 µM (inactive); in the experiment with NCI-H460 it was 86.5 µM (inactive); in the experiment on NCI-H522, 19.4 µM (inactive); with OVCAR-8 it was > 51.5 µM (inactive). The GI50 is 26.9 µM (inactive) with RPMI-8226; > 44 µM (inactive) in the experiment on SK-MEL-28; 22.8 µM (inactive) in the experiment with SK-MEL-5; > 51.3 µM (inactive) with SR; 17.4 µM (inactive) in the experiment with UO-31.

For the origin of these results see ChEMBL document CHEMBL1201862, “PubChem BioAssay data set” (2004).
